Assay results reported in patent publication US5430031A, “Serotoninergic ergoline derivatives” (Farmitalia Carlo Erba S.r.l., priority 1992, dated 1995).
Read-outs that look alike come from different tables or passages of the source.

Columns and labels:
[1] = molecular target: T1, serotonin 1A (5-HT1A) receptor (Rattus norvegicus, UniProt P19327); assay: 5-HT1A receptor affinity, 3H-8-OH-DPAT binding test (Experiment 1)
T1 construct: Freezed hippocampus dissected out from rats were homogenized; from tissue; host or cells: rat hippocampus, crude synaptosome membranes
T1 sequence (P19327 1-422): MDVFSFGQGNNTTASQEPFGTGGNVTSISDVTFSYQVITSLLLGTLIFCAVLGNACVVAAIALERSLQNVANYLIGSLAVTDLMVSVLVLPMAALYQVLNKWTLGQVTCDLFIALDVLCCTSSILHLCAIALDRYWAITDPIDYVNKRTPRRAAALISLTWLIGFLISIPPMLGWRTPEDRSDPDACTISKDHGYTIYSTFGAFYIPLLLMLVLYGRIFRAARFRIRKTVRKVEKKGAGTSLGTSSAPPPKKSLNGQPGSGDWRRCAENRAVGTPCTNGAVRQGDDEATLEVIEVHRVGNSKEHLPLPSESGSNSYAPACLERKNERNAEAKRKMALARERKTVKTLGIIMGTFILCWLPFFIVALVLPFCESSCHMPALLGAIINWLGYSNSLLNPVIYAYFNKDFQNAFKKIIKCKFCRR
Method: Experiment 1: affinity for serotonin 1A (5-HT1A) receptor [^3 H-8-Hydroxy-2-dipropylaminotetralin (^3 H-8-OH-DPAT)binding test]
After completion of reaction, the suspension was centrifuged at 40,000×g for 20 minutes at 0° C.
Then to the mixture was added 5 ml of ice-cold 50 mM Tris-CHI buffer (pH 7.4) rapidly vacuum-filtered through Whatman® GF/B filters and was washed twice with 5 ml of the same buffer. The radioactivity of the residue remaining on the filters was measured by liquid scintillation counter. Nonspecific binding was determined under the presence of 10^-5 M serotonin (5-HT).

dopamine 2 (D2) receptor = molecular target: T2, dopamine 2 (D2) receptor (Rattus norvegicus, UniProt P61169); assay: D2 receptor affinity, 3H-Spiperone binding test (Experiment 3); conditions: 3H-Spiperone 0.2 nM, corpus striatum, 37° C., 20 minutes; read-out: RECEPTOR BINDING I-C50 D2
T2 construct: Freezed corpus striatum dissected out from rats were homogenized; from tissue; host or cells: rat corpus striatum, crude synaptosome membranes
Method: Experiment 3: affinity for dopamine 2 (D2)receptor (^3 H-Spiperone binding test.)
The resulting pellet was homogenized in 150 volumes of 50 mM Tris-HCl buffer (PH 7.1) containing 120 mM potassium chloride, 2 mM calcium chloride, 1 mM magnesium chloride, 0,1% ascorbic acid and 10 μM pargyline. The suspension was incubated at 37° C. for 10 minutes and then provided as synaptosome membranes solution for the next assays.
To the aliquots (900μ) of synaptosome membranes solution were added 50 μl of ^3 H-Spiperone solution at the terminal concentration of 0.2 nM and 50 μl of test compound solution or 50 μl of its medium, and incubated at 37° C. for 20 minutes. After completion of the reaction, the mixture was rapidly vacuum-filtered through Whatman® GF/B filters. The filters were washed three times with 5 ml of the above buffer, and then the radioactivity of the residue remaining on the filters was measured by liquid scintillation counter.

[2] = molecular target: serotonin 2 (5-HT2) receptor (Rattus norvegicus, UniProt P14842); assay: 5-HT2 receptor affinity, 3H-Ketanserin binding test (Experiment 2)
Method: Experiment 2: affinity for serotonin 2(5-HT2)receptor (^3 H-Ketanserin binding test).
The suspension was centrifuged at 40,000×g for 20 minutes at 0° C. again. The resulting pellet was homogenized in 100 volumes of the above buffer and provided as synaptosome membranes solution for the next assay.
To the aliquots (900μ) of synaptosome membranes solution were added 50 μl solution of ^3 H-Ketanserin solution at the terminal concentration of 0.2 mM and 50 μl of test compound or its medium, and incubated at 37° C. for 20 minutes. After completion of the reaction, the mixture was rapidly vacuum-filtered through Whatman® GF/B filters. The filters were washed three times with 5 ml of the above buffer, and then the radioactivity of the residue remaining on the filters was measured by liquid scintillation counter. Non specific binding was determined under the presence of 10 μM of mianserin.

group-caged mice = assay: stress-induced hyperthermia, screening model of anxiety; assay type: in vivo; conditions: Mouse, ip
Description: This procedure is based upon the antagonism of an increase in rectal temperature observed in group-caged mice as they are being removed from their cohorts.

T2 sequence (P61169 whole entry): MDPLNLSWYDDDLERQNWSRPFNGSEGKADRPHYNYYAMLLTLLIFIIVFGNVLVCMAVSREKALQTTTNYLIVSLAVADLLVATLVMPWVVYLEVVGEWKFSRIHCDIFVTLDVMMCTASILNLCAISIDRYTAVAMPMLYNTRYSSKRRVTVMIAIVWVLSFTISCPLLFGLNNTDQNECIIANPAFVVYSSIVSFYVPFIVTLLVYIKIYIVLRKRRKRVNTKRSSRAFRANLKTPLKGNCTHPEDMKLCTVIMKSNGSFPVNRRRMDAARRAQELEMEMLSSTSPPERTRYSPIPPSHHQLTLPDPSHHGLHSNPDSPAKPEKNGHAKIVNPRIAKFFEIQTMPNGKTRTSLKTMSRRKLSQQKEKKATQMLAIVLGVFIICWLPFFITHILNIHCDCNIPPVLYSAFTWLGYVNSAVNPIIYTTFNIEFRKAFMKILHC
serotonin 2 (5-HT2) receptor, sequence (P14842 whole entry): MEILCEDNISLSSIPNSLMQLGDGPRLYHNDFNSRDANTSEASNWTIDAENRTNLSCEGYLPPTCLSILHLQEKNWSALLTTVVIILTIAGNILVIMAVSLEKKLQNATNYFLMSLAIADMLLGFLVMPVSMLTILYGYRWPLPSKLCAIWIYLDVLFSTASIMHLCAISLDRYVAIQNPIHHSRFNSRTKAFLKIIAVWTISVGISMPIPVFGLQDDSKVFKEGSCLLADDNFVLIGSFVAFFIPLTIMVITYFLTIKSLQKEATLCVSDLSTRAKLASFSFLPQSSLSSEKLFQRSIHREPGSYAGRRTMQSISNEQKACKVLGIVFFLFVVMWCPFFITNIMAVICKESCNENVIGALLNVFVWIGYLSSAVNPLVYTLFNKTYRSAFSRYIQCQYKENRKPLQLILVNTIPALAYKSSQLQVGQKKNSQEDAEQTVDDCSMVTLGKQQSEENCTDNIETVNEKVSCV

| Structure (SMILES) | IC50 ([1]; read-out: RECEPTOR BINDING I-C50 5-HT1A, 3H-8-OH-DPAT 0.2 nM, rat hippocampus, 37° C., 10 minutes) [nM] | IC50 (dopamine 2 (D2) receptor) [nM] | IC50 ([2]; read-out: RECEPTOR BINDING I-C50 5-HT2, 3H-Ketanserin 0.2 mM (so in the source), rat cerebral cortex, 37° C., 20 minutes) [nM] | IC50 [1] [nM] | IC50 [2] [nM] | ED50 (group-caged mice) [mg/kg] |
| --- | --- | --- | --- | --- | --- | --- |
| COC(=O)C1CC2c3cc(C(C)(C)C)cc4[nH]c(SC)c(c34)CC2N(C)C1 (stereo not drawn) [Example 1, 2-Thiomethyl-6-methyl-8β-methoxycarbonyl (13,14)-t-butyl-ergoline] | 30 | 5200 | 6700 |  |  |  |
| COC(=O)[C@@H]1C[C@@H]2c3cc(C(C)(C)C)cc4[nH]cc(c34)C[C@H]2N(C)C1 [Example 2, 6-Methyl-8β-methoxycarbonyl-13-t-butyl-ergoline] |  | 2770 |  | 10 | 1870 |  |
| CN1C[C@H](CO)C[C@@H]2c3cc(C(C)(C)C)cc4[nH]cc(c34)C[C@H]21 [Example 3, 6-Methyl-8β-hydroxymethyl-13-t-butyl-ergoline] |  | 4450 |  | 10 | 1100 |  |
| CN1C[C@H](CN)C[C@@H]2c3cc(C(C)(C)C)cc4[nH]cc(c34)C[C@H]21 [Example 4, 6-Methyl-8β-aminomethyl-13-t-butyl-ergoline] |  | 3330 |  | 10 | 700 |  |
| CN1CC(CNC(=O)Cc2ccccc2)CC2c3cc(C(C)(C)C)cc4[nH]cc(c34)CC21 (stereo not drawn) [Example 6, 6-Methyl-8β.phenylacetylaminomethyl-13-t-butyl-ergoline] |  | 1250 |  | 8 | 700 | 0.06 |
| CN1C[C@H](CNC(=O)C(C)(C)C)C[C@@H]2c3cc(C(C)(C)C)cc4[nH]cc(c34)C[C@H]21 [Example 7, 6-Methyl-8β-pivaloylaminomethyl-13-t-butyl-ergoline] |  | 5100 |  | 10 | 1200 | 0.06 |
| CN1C[C@H](CNC(=O)c2ccncc2)C[C@@H]2c3cc(C(C)(C)C)cc4[nH]cc(c34)C[C@H]21 [Example 8, 6-Methyl-8β-isonicotinoylaminomethyl-13-t-butyl-ergoline] |  | 2900 |  | 80 | 2100 |  |
| CN1C[C@H](CNC(=O)c2cncc(Br)c2)C[C@@H]2c3cc(C(C)(C)C)cc4[nH]cc(c34)C[C@H]21 [Example 9, 6-methyl-8β-(5-bromo-nicotinoyl)aminomethyl-13-t-butyl-ergoline] |  | 2100 |  | 10 | 1100 | 0.03 |
| CCOC(=O)NC[C@@H]1C[C@@H]2c3cc(C(C)(C)C)cc4[nH]cc(c34)C[C@H]2N(C)C1 [Example 11, 6-Methyl-8β-ethoxycarbonylaminomethyl-13-t-butyl-ergoline] |  | 3100 |  | 50 | 3480 | 0.06 |
| CN1C[C@H](CNC(=O)Nc2ccccc2)C[C@@H]2c3cc(C(C)(C)C)cc4[nH]cc(c34)C[C@H]21 [Example 12, 6-Methyl-8β-phenylaminocarbonylaminomethyl-13-t-butyl-ergoline] |  | 2100 |  | 10 | 6150 |  |
| CN1C[C@H](CNC(=O)C2CCCCC2)C[C@@H]2c3cc(C(C)(C)C)cc4[nH]cc(c34)C[C@H]21 [Example 13, 6-Methyl-8β-cyclohexylcarbonylaminomethyl-13-t-butyl-ergoline] |  | 1700 |  | 5 | 1100 |  |
| Cc1cc(C(=O)NCC2CC3c4cc(C(C)(C)C)cc5[nH]cc(c45)CC3N(C)C2)nn1C (stereo not drawn) [Example 16, 6-Methyl-8β-(1,5-dimethyl-3-pyrazoyl)aminomethyl-13-t-butyl-ergoline] |  |  |  |  |  | 0.06 |
| Cc1nc(C(=O)NCC2CC3c4cc(C(C)(C)C)cc5[nH]cc(c45)CC3N(C)C2)cs1 (stereo not drawn) [Example 17, 6-Methyl-8β-(2-methyl-4-thiazoyl)aminomethyl-13-t-butyl-ergoline] |  |  |  |  |  | 0.06 |
